From paper PMC7349874, “High Content Screening Using New U2OS Reporter Cell Models Identifies Harmol Hydrochloride as a Selective and Competitive Antagonist of the Androgen Receptor” (Cells, 2020)

Key:
VCaP cells = assay: Spheroid growth (CellTiter-Glo), VCaP; details: 7 days, 1 nM R1881
Description: (§5) Spheroids were generated by seeding prostate cancer cells in non-adherent U-bottom 96-well plates in medium supplemented with 5% of charcoal stripped FBS. VCaP, LNCaP-FGC, DU145, or PC3 cells were seeded in duplicate at a density of 2000, 500, 600, and 600 cells per well, respectively. […] Cell death was first evaluated by the incubation of the spheroids with propidium iodide (1 mg/mL) for 30 min, and quantitation of red fluorescence was performed using a Celigo® imaging cytometer (Nexcelom Bioscience). […] Then, proliferation was assessed following cell lysis with the CellTiter-Glo® Luminescent Cell Viability Assay reagent (Promega, Charbonnière, France), according to the manufacturer protocol. Quantification of the luminescence was performed using a MicroBeta Wallac luminometer (PerkinElmer), and percent growth was calculated relative to DMSO treated cells.
(§6) Spheroids were treated for 7 days, and cell death was evaluated by propidium iodide staining and fluorescence quantification, using the Celigo imaging system. Growth inhibition was then assessed by cell lysis with CellTiter-Glo, and quantification of the luminescence using a MicroBeta Wallac luminometer. Percent growth was calculated relative to dimethyl sulfoxide (DMSO) treated cells (n = 3 ± SEM).

[1] = tested on: AR target genes TMPRSS2, FKBP5, PSA; assay: RT-qPCR of AR target genes in LNCaP cells; details: 3 µM, 24 h, 1 nM R1881
Description: (§7) LNCaP and VCaP cells were seeded in 6-well plates (10^6 and 2 × 10^6 cells per well, respectively) and, 48 h later, complete medium was replaced by charcoal-stripped medium with 5% FBS. Cells were then treated for 24 h with the tested compounds, and RNA extraction was performed using the Quick RNA Miniprep kit (Zymo-Research, Irvine, CA, USA), according to the manufacturer’s protocol. Reverse transcription was performed with 0.5 µg total RNA using the SuperScript III reverse transcriptase kit (ThermoFisher, Waltham, MA, USA), according to the manufacturer’s protocol, in a final volume of 20 µL. The levels of genes transcripts were measured by real time PCR using a LightCycler 480 system (Roche Life Science, Penzberg, Germany) in the presence of SYBRGreen (SYBR® Premix Ex Taq^tm) and the following primers: FKBP5, sense 5′-[sequence]-3′; antisense 5′-[sequence]-3′; PSA, sense 5′-[sequence]-3′; antisense 5′-[sequence]-3′; TMPRSS2, sense 5′-[sequence]-3′, antisense 5′-[sequence]-3′; GR, sense 5′-[sequence]-3′, antisense 5′-[sequence]-3′; HPRT, sense 5′-[sequence]-3′; antisense 5′-[sequence]-3′; GAPDH, sense 5′-[sequence]-3′; antisense 5′-[sequence]-3′. Expression levels were evaluated with the ΔΔCt method and were normalized to GAPDH. Results are expressed as mRNA expression, relative to control (untreated cells), and are the mean ± SEM of 3 independent experiments.

LNCaP spheroids = tested on: LNCaP spheroids
Description: (§1) prostate cancer cells. GAPDH was used as a loading control.
(§2) Spheroids were treated for 7 days with the indicated concentrations of each drug, stained with PI (1 mg/mL) for 30 min and […] was evaluated using the Celigo® imaging system. Results are expressed as mortality ratios as compared to untreated spheroids (set at 1). Each point represent s the m ean ± SEM of 3 […]
(§3) Mortality (ratio/control)
(§4) [Harmol Hydrochloride] (M)

VCaP spheroids = tested on: VCaP spheroids
Description: as §1, §2, §3, §4

[2] = set-up: method as in PMID 20398925; details: cited from earlier work
[3] = molecular target: T1, mineralocorticoid receptor (MR) (Homo sapiens, UniProt P08235); assay: Transactivation assay in HG5LN MR cells; format: cell-based; details: 16 h, 1 nM aldosterone, highest concentrations used (>1 µM)
T1 construct: expressed in transfected cells
T1 sequence (P08235 726-964 limits assumed): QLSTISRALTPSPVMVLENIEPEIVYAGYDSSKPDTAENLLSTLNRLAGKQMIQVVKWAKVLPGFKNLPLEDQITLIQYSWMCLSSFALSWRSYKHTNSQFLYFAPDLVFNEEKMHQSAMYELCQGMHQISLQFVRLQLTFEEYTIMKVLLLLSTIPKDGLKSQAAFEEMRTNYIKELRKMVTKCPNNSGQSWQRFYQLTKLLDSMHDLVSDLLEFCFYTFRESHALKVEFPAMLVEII
Source text: HG5LN MR and HG5LN PXR luciferase reporter cell lines were obtained by stable expression of individual ligand binding domains fused to GAL4 DNA binding domain in HG5LN (HeLa GAL4REx5-luciferase) cells, as previously described. HELN PR cells were obtained by stably expressing PR with the ERα DNA binding domain in HELN (HeLa ERE-luciferase) cells and HMLN GR cells were obtained by stable co-transfection of HeLa cells with a plasmid encoding for a glucocorticoid responsive gene (MMTV-Luc-SV-Neo) and a glucocorticoid receptor expressing plasmid, as previously described.
Agonistic activities were evaluated in HMLN GR, HELN PR, HG5LN MR, and HG5LN PXR cells, using dexamethasone 100 nM, R5020 100 nM, aldosterone 100 nM, and SR12813 3 μM as a positive control, respectively. […] RU486 was used as a control antagonist for GR and PR, and spironolactone for MR.
HMLN glucocorticoid receptor (GR), HG5LN mineralocorticoid receptor (MR), HELN progesterone receptor (PR) and HG5LN PXR cells were used to evaluate the antagonistic effect of the tested compounds on (A) the glucocorticoid receptor (GR), (B) the mineralocorticoid receptor (MR), (C) the progesterone receptor (PR) and (D) the agonistic activity towards the pregnane X receptor (PXR). […]

GR [4] = assay: GR expression (RT-qPCR and Western blot) in LNCaP cells; details: 3 µM, 24 h, 1 nM R1881
Description: (§8) LNCaP and VCaP cells were seeded in 6-well plates (10^6 and 2 × 10^6 cells per well, respectively) and, 48 h later, complete medium was replaced by charcoal-stripped medium with 5% FBS. Cells were then treated for 24 h with the tested compounds, and RNA extraction was performed using the Quick RNA Miniprep kit (Zymo-Research, Irvine, CA, USA), according to the manufacturer’s protocol. Reverse transcription was performed with 0.5 µg total RNA using the SuperScript III reverse transcriptase kit (ThermoFisher, Waltham, MA, USA), according to the manufacturer’s protocol, in a final volume of 20 µL. The levels of genes transcripts were measured by real time PCR using a LightCycler 480 system (Roche Life Science, Penzberg, Germany) in the presence of SYBRGreen (SYBR® Premix Ex Taq^tm) and the following primers: FKBP5, sense 5′-[sequence]-3′; antisense 5′-[sequence]-3′; PSA, sense 5′-[sequence]-3′; antisense 5′-[sequence]-3′; TMPRSS2, sense 5′-[sequence]-3′, antisense 5′-[sequence]-3′; GR, sense 5′-[sequence]-3′, antisense 5′-[sequence]-3′; HPRT, sense 5′-[sequence]-3′; antisense 5′-[sequence]-3′; GAPDH, sense 5′-[sequence]-3′; antisense 5′-[sequence]-3′. Expression levels were evaluated with the ΔΔCt method and were normalized to GAPDH. Results are expressed as mRNA expression, relative to control (untreated cells), and are the mean ± SEM of 3 independent experiments. […]

LNCaP cells = assay: Spheroid growth (CellTiter-Glo), LNCaP; details: 7 days, 1 nM R1881
Description: as §5, §6

[5] = tested on: AR target genes TMPRSS2, FKBP5, PSA; assay: RT-qPCR of AR target genes in VCaP cells; details: 3 µM, 24 h, 1 nM R1881
Description: as §7

GR [6] = assay: GR expression (RT-qPCR and Western blot) in VCaP cells; details: 3 µM, 24 h, 1 nM R1881
Description: as §8

With CNC(=O)c1ccc(N2C(=S)N(c3ccc(C#N)c(C(F)(F)F)c3)C(=O)C2(C)C)cc1F [enzalutamide, reference compound] the “Growth of VCaP spheroids” value (VCaP cells) was “could inhibit the growth”, the “R1881-mediated expression of AR target genes TMPRSS2, FKBP5, PSA” value [1] was “more pronounced for enzalutamide than for harmol hydrochloride” and the “Cell death (propidium iodide positive cells) versus untreated spheroids” value (LNCaP spheroids) was “did not significantly affect the number of propidium iodide positive cells”. The “Cell death (propidium iodide positive cells) versus untreated spheroids” value (VCaP spheroids) was “did not significantly affect the number of propidium iodide positive cells”, the “Cmin required to saturate binding to AR” value [2] was 10 to 30 µM and the “Antagonistic activity towards MR” value [3] was “small antagonistic activity”. For the same compound, the “Expression of GR at the mRNA and protein levels” value (GR [4]) was “neither harmol nor enzalutamide treatment could significantly alter the expression of GR”, the “Growth of LNCaP spheroids” value (LNCaP cells) was “could inhibit the growth of VCaP and LNCaP cells, tough to a lesser extent” and the “R1881-mediated expression of AR target genes TMPRSS2, FKBP5, PSA” value [5] was “more pronounced for enzalutamide than for harmol hydrochloride”. For the same compound, the “Expression of GR at the mRNA and protein levels” value (GR [6]) was “neither harmol nor enzalutamide treatment could significantly alter the expression of GR”.
